Measured values published in patent US12377104B1, “Methods for treating a fatty liver disease” (Madrigal Pharmaceuticals, Inc., priority 2024, dated 2025).

Tested on: adults with biopsy-confirmed NASH
Experiment: MAESTRO-NASH: liver enzymes, imaging and biomarkers (MRI-PDFF, CAP, VCTE, MRE, liver and spleen volume, ELF)
Format: in vivo, human
[1] = 100 mg, wk 48, baseline ALT ≥30 U per liter
[2] = 100 mg, F1B, responder analysis
[3] = 100 mg, week 52, baseline ELF score ≥9.8
[4] = 100 mg, week 52, baseline PIIINP ≥9 ng/mL
[5] = 100 mg, week 52, baseline TIMP-I ≥240 ng/ml
[6] = 100 mg, week 52, baseline hyaluronic acid ≥50 ng/ml

CC(C)c1cc(Oc2c(Cl)cc(-n3nc(C#N)c(=O)[nH]c3=O)cc2Cl)n[nH]c1=O [Resmetirom, 2-(3,5-dichloro-4-((5-isopropyl-6-oxo-1,6-dihydropyridazin-3-yl)oxy)phenyl)-3,5-dioxo-2,3,4,5-tetrahydro-1,2,4-triazine-6-carbonitrile]
Hyaluronic acid, LS mean CFB difference from PBO (80 mg, week 52, baseline hyaluronic acid ≥50 ng/ml): 0.58 µg/L
Alanine aminotransferase level, difference from placebo (100 mg, wk 48): −26.3 percentage points
Aspartate aminotransferase level, difference from placebo (100 mg, wk 48): −25.4 percentage points
γ-Glutamyltransferase level, difference from placebo (100 mg, wk 48): −35.2 percentage points
Alanine aminotransferase level, least-squares mean percent change from baseline [1]: −33.2 ± 3.9%
Aspartate aminotransferase level, least-squares mean percent change from baseline [1]: −28.3 ± 3.9%
γ-Glutamyltransferase level, least-squares mean percent change from baseline [1]: −31.9 ± 6.3%
MRI-PDFF, difference from placebo (100 mg, wk 52): −37.9 percentage points
MRI-PDFF, least-squares mean percent change from baseline (100 mg, wk 52): −46.6 ± 2.8%
MRE ≥19% increase from BL, % of patients [2]: (20.0) %
MRE ≥19% increase from BL, no. of patients [2]: 1
MRE ≥19% reduction from BL, no. of patients [2]: 0
VCTE/LSM improving >25%, % of patients [2]: (70.0) %
VCTE/LSM improving >25%, no. of patients [2]: 7
VCTE/LSM improving ≥30%, % of patients [2]: (60.0) %
VCTE/LSM improving ≥30%, no. of patients [2]: 6
VCTE/LSM worsening ≥25%, no. of patients [2]: 0
VCTE/LSM worsening ≥30%, no. of patients [2]: 0
FibroScan VCTE/LSM, LS mean CFB (100 mg, F1B, week 52): −3.7 kPa
FibroScan VCTE/LSM, LS mean CFB difference from PBO (100 mg, F1B, week 52): −3.1 kPa
MRE, LS mean % CFB (100 mg, F1B, week 52): 2.4%
MRE, LS mean % CFB difference from PBO (100 mg, F1B, week 52): −5.1%
MRE ≥19% increase from BL, no. of patients (100 mg, F2, responder analysis): 0
MRE ≥19% reduction from BL, % of patients (100 mg, F2, responder analysis): (22.7) %
MRE ≥19% reduction from BL, no. of patients (100 mg, F2, responder analysis): 5
VCTE/LSM improving ≥25%, % of patients (100 mg, F2, responder analysis): (50.0) %
VCTE/LSM improving ≥25%, no. of patients (100 mg, F2, responder analysis): 38
VCTE/LSM improving ≥30%, % of patients (100 mg, F2, responder analysis): (40.8) %
VCTE/LSM improving ≥30%, no. of patients (100 mg, F2, responder analysis): 31
VCTE/LSM worsening ≥25%, % of patients (100 mg, F2, responder analysis): (10.5) %
VCTE/LSM worsening ≥25%, no. of patients (100 mg, F2, responder analysis): 8
VCTE/LSM worsening ≥30%, % of patients (100 mg, F2, responder analysis): (6.6) %
VCTE/LSM worsening ≥30%, no. of patients (100 mg, F2, responder analysis): 5
FibroScan VCTE/LSM, LS mean CFB (100 mg, F2, week 52): −2.4 kPa
FibroScan VCTE/LSM, LS mean CFB difference from PBO (100 mg, F2, week 52): −1.2 kPa
MRE, LS mean % CFB (100 mg, F2, week 52): 1.1%
MRE, LS mean % CFB difference from PBO (100 mg, F2, week 52): 0.99%
MRE ≥19% increase from BL, % of patients (100 mg, F3, responder analysis): (8.1) %
MRE ≥19% increase from BL, no. of patients (100 mg, F3, responder analysis): 7
MRE ≥19% reduction from BL, % of patients (100 mg, F3, responder analysis): (31.4) %
MRE ≥19% reduction from BL, no. of patients (100 mg, F3, responder analysis): 27
VCTE/LSM improving ≥25%, % of patients (100 mg, F3, responder analysis): (47.9) %
VCTE/LSM improving ≥25%, no. of patients (100 mg, F3, responder analysis): 80
VCTE/LSM improving ≥30%, % of patients (100 mg, F3, responder analysis): (38.9) %
VCTE/LSM improving ≥30%, no. of patients (100 mg, F3, responder analysis): 65
VCTE/LSM worsening ≥25%, % of patients (100 mg, F3, responder analysis): (10.8) %
VCTE/LSM worsening ≥25%, no. of patients (100 mg, F3, responder analysis): 18
VCTE/LSM worsening ≥30%, % of patients (100 mg, F3, responder analysis): (10.2) %
VCTE/LSM worsening ≥30%, no. of patients (100 mg, F3, responder analysis): 17
FibroScan VCTE/LSM, LS mean CFB (100 mg, F3, week 52): −3.2 kPa
FibroScan VCTE/LSM, LS mean CFB difference from PBO (100 mg, F3, week 52): −2.1 kPa
MRE, LS mean % CFB (100 mg, F3, week 52): 5.2%
MRE, LS mean % CFB difference from PBO (100 mg, F3, week 52): −4.8%
Liver volume, LS mean % CFB (100 mg, week 16): -21.4%
Liver volume, LS mean % CFB difference from PBO (100 mg, week 16): −21.1%
MRI-PDFF % fat fraction, LS mean % CFB (100 mg, week 16): 42.1%
MRI-PDFF % fat fraction, LS mean % CFB difference from PBO (100 mg, week 16): −35.7%
Spleen volume, LS mean % CFB (100 mg, week 16): 3.6%
Spleen volume, LS mean % CFB difference from PBO (100 mg, week 16): −5.0%
ALT, LS mean % CFB (100 mg, week 48): −33.2%
ALT, LS mean % CFB difference from PBO (100 mg, week 48): −26.3%
ALT, LS mean CFB (100 mg, week 48): 24.8 U/L
AST, LS mean % CFB (100 mg, week 48): 28.3%
AST, LS mean % CFB difference from PBO (100 mg, week 48): −25.4%
AST, LS mean CFB (100 mg, week 48): 15.8 U/L
GGT, LS mean % CFB (100 mg, week 48): -31.9%
GGT, LS mean % CFB difference from PBO (100 mg, week 48): −35.2%
GGT, LS mean CFB (100 mg, week 48): -32.7 U/L
Adiponectin, LS mean CFB (100 mg, week 52): 1.1 µg/mL
Adiponectin, LS mean CFB difference from PBO (100 mg, week 52): 1.3 µg/mL
CK-18, LS mean CFB (100 mg, week 52): -310 U/L
CK-18, LS mean CFB difference from PBO (100 mg, week 52): −165.7 U/L
FibroScan CAP, LS mean CFB (100 mg, week 52): −41.3 dB/m
FibroScan CAP, LS mean CFB difference from PBO (100 mg, week 52): −26.9 dB/m
Liver volume, LS mean % CFB (100 mg, week 52): -25.8%
Liver volume, LS mean % CFB difference from PBO (100 mg, week 52): 24.8%
MRI-PDFF % fat fraction, LS mean % CFB (100 mg, week 52): 46.6%
MRI-PDFF % fat fraction, LS mean % CFB difference from PBO (100 mg, week 52): −37.9%
Spleen volume, LS mean % CFB (100 mg, week 52): −6.1%
Spleen volume, LS mean % CFB difference from PBO (100 mg, week 52): −9.3%
Enhanced liver fibrosis score, LS mean CFB [3]: −0.35
Enhanced liver fibrosis score, LS mean CFB difference from PBO [3]: −0.24
PIIINP, LS mean % CFB [4]: -10.3%
PIIINP, LS mean % CFB difference from PBO [4]: −9.3%
PIIINP, LS mean CFB [4]: -2.1 ng/mL
PIIINP, LS mean CFB difference from PBO [4]: -1.4 ng/mL
TIMP-I, LS mean % CFB [5]: −10.1%
TIMP-I, LS mean % CFB difference from PBO [5]: −6.5%
TIMP-I, LS mean CFB [5]: -35.7 ng/mL
TIMP-I, LS mean CFB difference from PBO [5]: -22.3 ng/mL
Hyaluronic acid, LS mean % CFB [6]: 11.8%
Hyaluronic acid, LS mean % CFB difference from PBO [6]: −13.0%
Hyaluronic acid, LS mean CFB [6]: -2.9 µg/L
Hyaluronic acid, LS mean CFB difference from PBO [6]: -3.5 µg/L
